Calls of active or inactive are those of the source. No cut-off for these calls is given here.
Key:
HepG2 [1] = assay: Cytotoxicity against human HepG2 cells assessed as decrease in cell proliferation after 48 hrs by MTT colorimetric assay; type: functional, cell-based; settings: HepG2, 48 h
Hep 3B2 = assay: Cytotoxicity against human Hep3B cells assessed as decrease in cell proliferation after 48 hrs by MTT colorimetric assay; type: functional, cell-based
MCF7 [2] = assay: Cytotoxicity against human MCF7 cells assessed as decrease in cell proliferation after 48 hrs by MTT colorimetric assay; type: functional, cell-based; settings: for IC50: Homo sapiens, MCF7, 48 h
Bcap37 = assay: Cytotoxicity against human Bcap37 cells assessed as decrease in cell proliferation after 48 hrs by MTT colorimetric assay; type: functional, cell-based; settings: Bcap37, 48 h
U-251 = assay: Cytotoxicity against human U251 cells assessed as decrease in cell proliferation after 48 hrs by MTT colorimetric assay; type: functional, cell-based; settings: U-251, 48 h
A549 [3] = assay: Cytotoxicity against human A549 cells assessed as decrease in cell proliferation after 48 hrs by MTT colorimetric assay; type: functional, cell-based; settings: A549, 48 h
MCF7 [4] = assay: Induction of apoptosis in human MCF7 cells assessed as cell shrinkage at 1.5 to 6 uM after 48 hrs by inverted phase contrast microscopic method; type: functional, cell-based
MCF7 [5] = assay: Induction of apoptosis in human MCF7 cells assessed as late apoptotic cells at 6 uM after 48 hrs by annexin-V/propidium iodide staining-based flow cytometric method (reference value: […]); type: functional
MCF7 [6] = assay: Induction of apoptosis in human MCF7 cells assessed as late apoptotic cells at 3 uM after 48 hrs by annexin-V/propidium iodide staining-based flow cytometric method (reference value: 1.43%); type: functional
MCF7 [7] = assay: Induction of apoptosis in human MCF7 cells assessed as cell rounding at 1.5 to 6 uM after 48 hrs by inverted phase contrast microscopic method; type: functional, cell-based
MCF7 [8] = assay: Potency index, ratio of sarsasapogenin IC50 to test compound IC50 for human MCF7 cells; type: functional
MCF7 [9] = assay: Induction of apoptosis in human MCF7 cells assessed as upregulation of cleaved PARP level at 6 uM after 48 hrs by Western blot method relative to control; type: functional
MCF7 [10] = assay: Induction of apoptosis in human MCF7 cells assessed as membrane blebbing at 1.5 to 6 uM after 48 hrs by inverted phase contrast microscopic method; type: functional, cell-based
MCF7 [11] = assay: Induction of apoptosis in human MCF7 cells assessed as early apoptotic cells at 6 uM after 48 hrs by annexin-V/propidium iodide staining-based flow cytometric method (reference value: 1.17%); type: functional
MCF7 [12] = assay: Induction of apoptosis in human MCF7 cells assessed as early apoptotic cells at 1.5 uM after 48 hrs by annexin-V/propidium iodide staining-based flow cytometric method (reference value: 1.17%); type: functional
MCF7 [13] = assay: Induction of apoptosis in human MCF7 cells assessed as early apoptotic cells at 3 uM after 48 hrs by annexin-V/propidium iodide staining-based flow cytometric method (reference value: 1.17%); type: functional
MCF7 [14] = assay: Induction of apoptosis in human MCF7 cells assessed as formation of apoptotic bodies at 1.5 to 6 uM after 48 hrs by inverted phase contrast microscopic method; type: functional, cell-based
MCF7 [15] = assay: Induction of apoptosis in human MCF7 cells assessed as upregulation of cleaved caspase 7 level at 6 uM after 48 hrs by Western blot method relative to control; type: functional
MCF7 [16] = assay: Induction of apoptosis in human MCF7 cells assessed as late apoptotic cells at 1.5 uM after 48 hrs by annexin-V/propidium iodide staining-based flow cytometric method (reference value: 1.43%); type: functional
MCF7 [17] = assay: Cell cycle arrest in human MCF7 cells assessed as accumulation at G2/M phase at 1.5 to 6 uM after 48 hrs by propidium iodide staining-based flow cytometric method; type: functional
MCF7 [18] = assay: Cell cycle arrest in human MCF7 cells assessed as accumulation at sub-G1 phase at 1.5 to 6 uM after 48 hrs by propidium iodide staining-based flow cytometric method; type: functional
HepG2 [19] = assay: Potency index, ratio of sarsasapogenin IC50 to test compound IC50 for human HepG2 cells; type: functional
A549 [20] = assay: Potency index, ratio of sarsasapogenin IC50 to test compound IC50 for human A549 cells; type: functional

Compound	IC50 (HepG2 [1])	IC50 (Hep 3B2)	IC50 (MCF7 [2])	IC50 (Bcap37)	IC50 (U-251)	IC50 (A549 [3])	further results
C[C@@H](CC[C@H]1O[C@H]2C[C@H]3[C@@H]4CC[C@@H]5C[C@@H](OCc6ccccc6)CC[C@]5(C)[C@H]4CC[C@]3(C)[C@H]2[C@@H]1C)CN1CCNCC1	> 100 µM	> 100 µM	> 100 µM	> 100 µM	> 100 µM	> 100 µM	
CO[C@H]1CC[C@@]2(C)[C@H](CC[C@@H]3[C@@H]2CC[C@]2(C)[C@H]4[C@H](C)[C@@H](CC[C@@H](C)CN5CCNCC5)O[C@H]4C[C@@H]32)C1	35.5 µM						
COc1ccc(CO[C@H]2CC[C@@]3(C)[C@H](CC[C@@H]4[C@@H]3CC[C@]3(C)[C@H]5[C@H](C)[C@@H](CC[C@H](C)CN(C)C)O[C@H]5C[C@@H]43)C2)cc1	79.5 µM	23.4 µM	> 100 µM	> 100 µM	> 100 µM	> 100 µM	
CCN(CC)C[C@@H](C)CC[C@H]1O[C@H]2C[C@H]3[C@@H]4CC[C@@H]5C[C@@H](OCc6ccccc6)CC[C@]5(C)[C@H]4CC[C@]3(C)[C@H]2[C@@H]1C	44 µM	28.2 µM	93 µM	> 100 µM	> 100 µM	67.2 µM	
C[C@H]1CC[C@@]2(OC1)O[C@H]1C[C@H]3[C@@H]4CC[C@@H]5C[C@@H](O)CC[C@]5(C)[C@H]4CC[C@]3(C)[C@H]1[C@@H]2C [SARSASAPOGENIN]	40.3 µM	> 100 µM	49.2 µM	> 100 µM	> 100 µM	38.1 µM	
COc1ccc(CO[C@H]2CC[C@@]3(C)[C@H](CC[C@@H]4[C@@H]3CC[C@]3(C)[C@H]5[C@H](C)[C@@H](CC[C@H](C)CN6CCNCC6)O[C@H]5C[C@@H]43)C2)cc1	4.35 µM	9.07 µM		8.83 µM	4.92 µM	4.43 µM	Activity (MCF7 [4]): Active; Activity (MCF7 [5]): 7.27%; Activity (MCF7 [6]): 5.8%; Activity (MCF7 [7]): Active; Activity (MCF7 [2]): Dose-dependent effect; Activity (MCF7 [2]; record 2): 2.95 µM; Ratio IC50 (MCF7 [8]): 16.7; fold change (FC) (MCF7 [9]): 13; Activity (MCF7 [10]): Active; Activity (MCF7 [11]): 4.35%; Activity (MCF7 [12]): 3.24%; Activity (MCF7 [13]): 4.51%; Activity (MCF7 [14]): Active; fold change (FC) (MCF7 [15]): 16; Activity (MCF7 [16]): 5.21%; Activity (MCF7 [17]): Active; Activity (MCF7 [18]): Active
COc1ccc(CO[C@H]2CC[C@@]3(C)[C@H](CC[C@@H]4[C@@H]3CC[C@]3(C)[C@H]5[C@H](C)[C@@H](CC[C@H](C)CN6CCN(C)CC6)O[C@H]5C[C@@H]43)C2)cc1	21.4 µM	> 100 µM	3.74 µM	9.12 µM	8.37 µM	6.78 µM	
C[C@H](CO)CC[C@H]1O[C@H]2C[C@H]3[C@@H]4CC[C@@H]5C[C@@H](OCc6ccccc6)CC[C@]5(C)[C@H]4CC[C@]3(C)[C@H]2[C@@H]1C	14.5 µM	10.1 µM	22.1 µM	25 µM	19.8 µM	34.4 µM	
O=c1[nH]cc(F)c(=O)[nH]1 [FLUOROURACIL]	10.2 µM				48.7 µM		
C[C@@H](CC[C@H]1O[C@H]2C[C@H]3[C@@H]4CC[C@@H]5C[C@@H](OCc6ccccc6)CC[C@]5(C)[C@H]4CC[C@]3(C)[C@H]2[C@@H]1C)CN1CCN(C)CC1	52.3 µM	70.8 µM	> 100 µM	> 100 µM	> 100 µM	> 100 µM	
C[C@@H](CC[C@H]1O[C@H]2C[C@H]3[C@@H]4CC[C@@H]5C[C@@H](OCc6ccccc6)CC[C@]5(C)[C@H]4CC[C@]3(C)[C@H]2[C@@H]1C)CN(C)C	42.7 µM	28.3 µM	> 100 µM	> 100 µM	> 100 µM	91.3 µM	
C[C@@H](CC[C@H]1O[C@H]2C[C@H]3[C@@H]4CC[C@@H]5C[C@@H](OCc6ccc(F)cc6)CC[C@]5(C)[C@H]4CC[C@]3(C)[C@H]2[C@@H]1C)CN1CCN(C)CC1	35.6 µM	> 100 µM	44.1 µM	> 100 µM	> 100 µM	13.9 µM	
CCN(CC)C[C@@H](C)CC[C@H]1O[C@H]2C[C@H]3[C@@H]4CC[C@@H]5C[C@@H](OCc6ccc(F)cc6)CC[C@]5(C)[C@H]4CC[C@]3(C)[C@H]2[C@@H]1C	26.4 µM	> 100 µM	45.2 µM	> 100 µM	> 100 µM	18 µM	
COc1ccc(CO[C@H]2CC[C@@]3(C)[C@H](CC[C@@H]4[C@@H]3CC[C@]3(C)[C@H]5[C@H](C)[C@@H](CC[C@H](C)CN6CCCC6)O[C@H]5C[C@@H]43)C2)cc1	> 100 µM	69.9 µM	> 100 µM	> 100 µM	> 100 µM	> 100 µM	
CO[C@H]1CC[C@@]2(C)[C@H](CC[C@@H]3[C@@H]2CC[C@]2(C)[C@H]4[C@H](C)[C@@H](CC[C@@H](C)CN5CCCC5)O[C@H]4C[C@@H]32)C1	4.24 µM						
C[C@@H](CC[C@H]1O[C@H]2C[C@H]3[C@@H]4CC[C@@H]5C[C@@H](OCc6ccc(F)cc6)CC[C@]5(C)[C@H]4CC[C@]3(C)[C@H]2[C@@H]1C)CN1CCNCC1	8.61 µM	16.8 µM	16.7 µM	15.6 µM	31.3 µM	14.3 µM	Ratio IC50 (HepG2 [19]): 4.7
C[C@@H](CC[C@H]1O[C@H]2C[C@H]3[C@@H]4CC[C@@H]5C[C@@H](OCc6ccccc6)CC[C@]5(C)[C@H]4CC[C@]3(C)[C@H]2[C@@H]1C)CN1CCCC1	30.4 µM	26.8 µM	37.6 µM	36 µM	23.6 µM	27.1 µM	
C[C@@H](CC[C@H]1O[C@H]2C[C@H]3[C@@H]4CC[C@@H]5C[C@@H](OCc6ccc(F)cc6)CC[C@]5(C)[C@H]4CC[C@]3(C)[C@H]2[C@@H]1C)CN1CCCC1	4.38 µM	12.9 µM	5.13 µM	9.68 µM	7.1 µM	8.98 µM	Ratio IC50 (HepG2 [19]): 9.2
C[C@H](CO)CC[C@H]1O[C@H]2C[C@H]3[C@@H]4CC[C@@H]5C[C@@H](OCc6ccc(F)cc6)CC[C@]5(C)[C@H]4CC[C@]3(C)[C@H]2[C@@H]1C	14.5 µM	11.7 µM	44.1 µM	97.3 µM	38.8 µM	25.1 µM	
CCN(CC)C[C@@H](C)CC[C@H]1O[C@H]2C[C@H]3[C@@H]4CC[C@@H]5C[C@@H](OCc6ccc(OC)cc6)CC[C@]5(C)[C@H]4CC[C@]3(C)[C@H]2[C@@H]1C	13.9 µM	> 100 µM	4.83 µM	14.7 µM	12.9 µM	14.3 µM	
C[C@@H](CC[C@H]1O[C@H]2C[C@H]3[C@@H]4CC[C@@H]5C[C@@H](OCc6ccc(F)cc6)CC[C@]5(C)[C@H]4CC[C@]3(C)[C@H]2[C@@H]1C)CN(C)C	27.2 µM	> 100 µM	17.9 µM	> 100 µM	14.1 µM	4.02 µM	Ratio IC50 (A549 [20]): 9.5

From ChEMBL document CHEMBL3994607, “Synthesis of new sarsasapogenin derivatives with cytotoxicity and apoptosis-inducing activities in human breast cancer MCF-7 cells” (Eur J Med Chem, 2017)
